Assay results: PubChem BioAssay AID330 (DTP/NCI, 2004)
Inconclusive results and toxic doses are left out.

Test system: P388 leukemia ip, CD2F1 mice, survival T/C
Test: NCI In Vivo Anticancer Drug Screen. Data for tumor model P388 Leukemia (intraperitoneal) in CD2F1 (CDF1) mice
Conditions: endpoint: median survival time, higher = longer survival
In short: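 Mice carrying the transplanted tumor received test compound or vehicle. Survival was recorded in each group, and the value is the treated-group measurement divided by that of the vehicle-treated control group.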

[1] = dose: 50.0 mg/kg/injection, schedule: Q01DX009 (ip), vehicle: saline with Tween-80
[2] = dose: 100.0 mg/kg/injection, schedule: Q01DX009 (ip), vehicle: saline with Tween-80
[3] = dose: 200.0 mg/kg/injection, schedule: Q01DX009 (ip), vehicle: saline with Tween-80
[4] = dose: 30.0 mg/kg/injection, schedule: Q01DX005 (ip), vehicle: Klucel (hydroxypropylcellulose) (HPC)

**Q.** What does the source list for `COc1ccc2c(c1OC)CN1CCc3cc4c(cc3C1C2C)OCO4` (configuration not stated)?
**A.** T/C (dose: 50.0 mg/kg/injection, schedule: Q04DX003 (ip), vehicle: distilled water + Tween-80): 91 % of control; T/C (dose: 100.0 mg/kg/injection, schedule: Q04DX003 (ip), vehicle: distilled water + Tween-80): 96 % of control; T/C (dose: 200.0 mg/kg/injection, schedule: Q04DX003 (ip), vehicle: distilled water + Tween-80): 91 % of control; T/C (dose: 400.0 mg/kg/injection, schedule: Q04DX003 (ip), vehicle: distilled water + Tween-80): 89 % of control

**Q.** `O=[N+]([O-])c1ccc(SCN2CCCCC2)cc1` was tested. Which T/C [1] did it give?
**A.** 104 % of control

**Q.** What about the T/C [2] of the same molecule?
**A.** 104 % of control

**Q.** What about the T/C [3] of the same molecule?
**A.** 118 % of control

**Q.** Which T/C (dose: 60.0 mg/kg/injection, schedule: Q01DX005 (ip), vehicle: saline with Tween-80) does the source give for `COC(=O)c1nnn(-c2ccc(Cl)cc2C)c1N` here?
**A.** 96 % of control

**Q.** What about the T/C (dose: 120.0 mg/kg/injection, schedule: Q01DX005 (ip), vehicle: saline with Tween-80) of the same molecule?
**A.** 97 % of control

**Q.** What about the T/C (dose: 240.0 mg/kg/injection, schedule: Q01DX005 (ip), vehicle: saline with Tween-80) of the same molecule?
**A.** 91 % of control

**Q.** `CCOc1ccc(/C=C(\C(=O)c2ccccc2)S(=O)(=O)c2ccc(OC)cc2)cc1OC` was tested. Which T/C (dose: 50.0 mg/kg/injection, schedule: Q01DX005 (ip), vehicle: saline with Tween-80) did it give?
**A.** 92 % of control

**Q.** And the T/C (dose: 100.0 mg/kg/injection, schedule: Q01DX005 (ip), vehicle: saline with Tween-80)?
**A.** 92 % of control

**Q.** `COC(CN(C)C)C(Cl)(Cl)Cl` (configuration not stated) was tested. Which T/C (dose: 50.0 mg/kg/injection, schedule: Q01DX009 (ip), vehicle: Klucel (hydroxypropylcellulose) (HPC)) did it give?
**A.** 103 % of control

**Q.** And the T/C (dose: 100.0 mg/kg/injection, schedule: Q01DX009 (ip), vehicle: Klucel (hydroxypropylcellulose) (HPC))?
**A.** 108 % of control

**Q.** What about the T/C (dose: 200.0 mg/kg/injection, schedule: Q01DX009 (ip), vehicle: Klucel (hydroxypropylcellulose) (HPC)) of the same molecule?
**A.** 101 % of control

**Q.** What does the source list for `O=P1(NNc2ncccn2)SC(NN=C2CCCCC2)=NC12CCCCC2` (configuration not stated)?
**A.** T/C (dose: 7.5 mg/kg/injection, schedule: Q01DX005 (ip), vehicle: Klucel (hydroxypropylcellulose) (HPC)): 100 % of control; T/C (dose: 15.0 mg/kg/injection, schedule: Q01DX005 (ip), vehicle: Klucel (hydroxypropylcellulose) (HPC)): 95 % of control; T/C [4]: 95 % of control; T/C (dose: 60.0 mg/kg/injection, schedule: Q01DX005 (ip), vehicle: Klucel (hydroxypropylcellulose) (HPC)): 100 % of control

**Q.** What does the source list for `C1=Cc2ccccc2CS1`?
**A.** T/C (dose: 25.0 mg/kg/injection, schedule: Q01DX009 (ip), vehicle: other): 106 % of control; T/C (dose: 50.0 mg/kg/injection, schedule: Q01DX009 (ip), vehicle: other): 116 % of control; T/C (dose: 100.0 mg/kg/injection, schedule: Q01DX009 (ip), vehicle: other): 108 % of control; T/C (dose: 200.0 mg/kg/injection, schedule: Q01DX009 (ip), vehicle: other): 88 % of control; T/C (dose: 400.0 mg/kg/injection, schedule: Q01DX009 (ip), vehicle: other): 88 % of control

**Q.** `NNC(=O)C1CCCC1` was tested. Which T/C (dose: 6.25 mg/kg/injection, schedule: Q01DX009 (ip), vehicle: saline with Tween-80) did it give?
**A.** 113 % of control

**Q.** What about the T/C (dose: 12.5 mg/kg/injection, schedule: Q01DX009 (ip), vehicle: saline with Tween-80) of the same molecule?
**A.** 104 % of control

**Q.** And the T/C (dose: 25.0 mg/kg/injection, schedule: Q01DX009 (ip), vehicle: saline with Tween-80)?
**A.** 100 % of control

**Q.** What about the T/C [1] of the same molecule?
**A.** 113 % of control

**Q.** For `CN(C)C1(C)CCC2C3CCC4=CC(=O)CCC4(C)C3CCC21C` (configuration not stated), which T/C (dose: 50.0 mg/kg/injection, schedule: Q01DX005 (ip), vehicle: Klucel (hydroxypropylcellulose) (HPC)) is on record?
**A.** 97 % of control

**Q.** What about the T/C (dose: 100.0 mg/kg/injection, schedule: Q01DX005 (ip), vehicle: Klucel (hydroxypropylcellulose) (HPC)) of the same molecule?
**A.** 97 % of control

**Q.** And the T/C (dose: 200.0 mg/kg/injection, schedule: Q01DX005 (ip), vehicle: Klucel (hydroxypropylcellulose) (HPC))?
**A.** 100 % of control

**Q.** How did the T/C (dose: 50.0 mg/kg/injection, schedule: Q04DX003 (ip), vehicle: saline) turn out when `CS(=O)(=O)Oc1ccc2c(c1)CCC2` was run?
**A.** 99 % of control

**Q.** What about the T/C (dose: 100.0 mg/kg/injection, schedule: Q04DX003 (ip), vehicle: saline) of the same molecule?
**A.** 101 % of control

**Q.** And the T/C (dose: 200.0 mg/kg/injection, schedule: Q04DX003 (ip), vehicle: saline)?
**A.** 108 % of control

**Q.** And the T/C (dose: 400.0 mg/kg/injection, schedule: Q04DX003 (ip), vehicle: saline)?
**A.** 102 % of control

**Q.** For `CSC(=S)/C(=C/Nc1ncccn1)c1ccccc1`, which T/C [4] is on record?
**A.** 87 % of control

**Q.** What about the T/C (dose: 120.0 mg/kg/injection, schedule: Q01DX005 (ip), vehicle: Klucel (hydroxypropylcellulose) (HPC)) of the same molecule?
**A.** 89 % of control

**Q.** With `C=CCC1CCCCC1=O` (configuration not stated) (tested in a mixture with another compound) as the molecule, how does the T/C [1] read?
**A.** 105 % of control

**Q.** And the T/C [2]?
**A.** 104 % of control

**Q.** What about the T/C [3] of the same molecule?
**A.** 115 % of control

**Q.** What does the source list for `CCCOC1CC(C)(O)Cc2cc3c(c(O)c21)C(=O)c1c(O)cc2c(c1C3=O)OC1OC2(C)C(O)C(N(C)C)C1O` (configuration not stated)?
**A.** T/C (dose: 1.56 mg/kg/injection, schedule: Q01DX009 (ip), vehicle: other): 124 % of control; T/C (dose: 3.13 mg/kg/injection, schedule: Q01DX009 (ip), vehicle: other): 150 % of control
